Measurements published in patent publication US12011433B2 (UNIVERSITÁ DEGLI STUDI DI BARI “ALDO MORO”, priority 2016, dated 2024).
Where two headings read alike, the source gives them in different places.

What was measured:
[1] = target: ovine COX-1 (Ovis aries (Sheep), UniProt P05979); test: colorimetric COX (ovine) inhibitor screening assay kit; assay type: biochemical; details: for inhibition at 50 µM: read-out: COX-1 [% inhibition at 50 μM], ovine COX-1, 50 μM; for IC50: ovine COX-1
Method: (§1) Enzyme inhibition was determined using a colorimetric COX (ovine) inhibitor screening assay kit (Cayman Chemicals, Ann Arbor, MI, USA) following the manufacturer's instructions. Stock solutions of test compounds were dissolved in a minimum volume of DMSO.

[2] = target: ovine COX-2 (Ovis aries (Sheep), UniProt P79208); test: as above; assay type: biochemical; details: for inhibition at 50 µM: read-out: COX-2 [% inhibition at 50 μM], ovine COX-2, 50 μM; for IC50: ovine COX-2
Sequence of ovine COX-2 (P79208 17-603): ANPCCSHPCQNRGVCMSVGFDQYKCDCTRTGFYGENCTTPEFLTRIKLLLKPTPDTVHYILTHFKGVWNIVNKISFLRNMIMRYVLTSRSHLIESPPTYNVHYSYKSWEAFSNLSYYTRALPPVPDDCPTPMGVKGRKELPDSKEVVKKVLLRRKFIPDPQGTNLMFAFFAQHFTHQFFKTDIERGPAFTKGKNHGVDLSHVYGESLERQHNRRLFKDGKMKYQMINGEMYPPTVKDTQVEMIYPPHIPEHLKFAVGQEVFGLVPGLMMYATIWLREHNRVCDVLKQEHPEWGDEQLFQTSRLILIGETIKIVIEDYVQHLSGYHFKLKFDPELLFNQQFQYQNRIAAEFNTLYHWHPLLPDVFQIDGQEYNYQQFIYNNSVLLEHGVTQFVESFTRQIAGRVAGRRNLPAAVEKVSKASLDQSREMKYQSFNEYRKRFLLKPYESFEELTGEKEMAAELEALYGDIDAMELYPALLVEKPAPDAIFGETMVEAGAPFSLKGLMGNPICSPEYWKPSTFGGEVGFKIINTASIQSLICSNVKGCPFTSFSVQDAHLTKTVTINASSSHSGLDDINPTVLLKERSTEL
Method: as §1

[3] = Caco-2 monolayer efflux assay, Apparent Permeability (Papp), with or without GLUT-1 inhibitor phloretin; assay type: in vitro ADME, Human; details: human, compound alone
Method: (§2) In a monolayer efflux assay, the Apparent Permeability (Papp) in both basolateral to apical [Papp(B→A)] and apical to basolateral [Papp(A→B)] directions was determined for each compound (FIG. 2). Human colonic adenocarcinoma cell line (Caco-2) presents a facilitated transport system at the apical and basolateral surface. Caco-2 cells express high levels of GLUT-1 that are localized to the basolateral membrane and transport glucose to the serosal side.
(§3) The Papp(B→A) flux of each compound alone or in the presence of phloretin, a GLUT-1 inhibitor, has been determined. Since GLUT-1 is express in the basolateral compartment a high B→A flux means that the transport is GLUT-1 mediated because B→A flux represents the active transport.
(§4) A→B flux, which represents the passive transport, has also been determined for each compound (Table 2).

[4] = system: Caco-2 cells; test: as above; assay type: in vitro ADME, Human; details: for Papp B → A, Phloretin: in the presence of 100 mM Phloretin; for reduction of the basolateral to apical flux (Papp B→A) in the presence of phloretin: phloretin vs alone
Method: as §2, §3, §4

[5] = system: GLUT-1; test: as above; assay type: in vitro ADME, Human; details: human
Method: as §2, §3, §4

[6] = target: COX-2 (Homo sapiens, UniProt P35354); test: colorimetric COX Inhibitor screening Assay (peroxidase component, oxidized TMPD at 590 nm); assay type: biochemical; details: for inhibition at 50 µM: the highest concentration tested; for IC50: human cyclooxygenase
Sequence of COX-2 (P35354 18-604 limits assumed): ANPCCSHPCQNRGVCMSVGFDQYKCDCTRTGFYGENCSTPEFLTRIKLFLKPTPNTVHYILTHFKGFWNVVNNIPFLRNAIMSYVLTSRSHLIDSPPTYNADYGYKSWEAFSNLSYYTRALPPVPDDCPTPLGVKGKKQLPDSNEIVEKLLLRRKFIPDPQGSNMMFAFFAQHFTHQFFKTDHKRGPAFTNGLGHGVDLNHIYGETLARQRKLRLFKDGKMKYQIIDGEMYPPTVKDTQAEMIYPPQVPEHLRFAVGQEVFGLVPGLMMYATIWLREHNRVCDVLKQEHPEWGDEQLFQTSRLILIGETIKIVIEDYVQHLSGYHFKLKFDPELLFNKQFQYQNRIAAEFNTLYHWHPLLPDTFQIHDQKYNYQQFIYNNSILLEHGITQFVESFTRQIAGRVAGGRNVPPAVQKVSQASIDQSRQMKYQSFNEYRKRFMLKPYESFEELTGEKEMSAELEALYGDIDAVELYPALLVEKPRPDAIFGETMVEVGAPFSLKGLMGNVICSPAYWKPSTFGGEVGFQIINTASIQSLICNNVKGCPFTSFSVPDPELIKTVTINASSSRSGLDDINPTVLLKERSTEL
Method: Human cyclooxygenase inhibitory activity was determined by a colorimetric COX Inhibitor screening Assay which measures the peroxidase component of the cyclooxygenases, monitoring the appearance of oxidized N,N,N′,N′-tetramethyl-p-phenylenediamine (TMPD) at 590 nm.

Sequence of ovine COX-1 (P05979 25-600): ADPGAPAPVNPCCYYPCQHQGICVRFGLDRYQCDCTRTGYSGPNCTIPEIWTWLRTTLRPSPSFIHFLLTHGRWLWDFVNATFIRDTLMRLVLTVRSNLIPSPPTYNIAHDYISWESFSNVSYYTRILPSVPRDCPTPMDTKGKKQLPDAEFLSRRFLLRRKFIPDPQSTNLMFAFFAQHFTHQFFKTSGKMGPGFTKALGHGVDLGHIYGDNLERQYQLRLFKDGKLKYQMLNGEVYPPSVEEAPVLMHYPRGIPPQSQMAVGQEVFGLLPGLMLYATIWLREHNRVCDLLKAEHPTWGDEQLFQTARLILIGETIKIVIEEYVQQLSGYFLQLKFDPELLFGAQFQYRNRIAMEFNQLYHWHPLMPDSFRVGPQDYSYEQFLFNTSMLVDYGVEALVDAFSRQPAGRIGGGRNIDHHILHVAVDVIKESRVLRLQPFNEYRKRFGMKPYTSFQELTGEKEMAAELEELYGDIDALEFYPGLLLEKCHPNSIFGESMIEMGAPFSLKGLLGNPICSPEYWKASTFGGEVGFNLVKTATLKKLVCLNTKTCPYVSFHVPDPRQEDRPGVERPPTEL

Row | SMILES | inhibition at 50 µM [1] | inhibition at 50 µM [2] | IC50 [1] | IC50 [2] | further results
1 | COc1ccc(-c2noc(CC(=O)NCC(=O)O)c2-c2ccc(OC)cc2)cc1 | 23% | 17% | – | – | –
2 | COc1ccc(-c2noc(CC(=O)NCCCCCCNC(=O)Cc3onc(-c4ccc(OC)cc4)c3-c3ccc(OC)cc3)c2-c2ccc(OC)cc2)cc1 | 50% | 22% | 9000 nM | > 50000 nM | –
3 | CCCCCCCCC(CCCNC(=O)Cc1onc(-c2ccc(OC)cc2)c1-c1ccc(OC)cc1)NC(=O)Cc1onc(-c2ccc(OC)cc2)c1-c1ccc(OC)cc1 (stereo not drawn) [Compound 13, N-(4-(2-(3,4-Bis(4-methoxyphenyl)isoxazol-5-yl)acetamido)dodecyl)-3,4-bis(4-methoxyphenyl)isoxazole-5-carboxyamide] | – | – | – | – | melting point: 134 to 138 °C
4 | CCC(CCCNC(=O)Cc1onc(-c2ccc(OC)cc2)c1-c1ccc(OC)cc1)NC(=O)Cc1onc(-c2ccc(OC)cc2)c1-c1ccc(OC)cc1 (stereo not drawn) [Compound 12, N-(4-(2-(3,4-Bis(4-methoxyphenyl)isoxazol-5-yl)acetamido)hexyl)-3,4-bis(4-methoxyphenyl)isoxazole-5-carboxyamide] | – | – | – | – | melting point: 159 to 161 °C
5 | COc1ccc(-c2noc(CC(=O)NCCNC(=O)Cc3onc(-c4ccc(OC)cc4)c3-c3ccc(OC)cc3)c2-c2ccc(OC)cc2)cc1 [Compound 10, N,N′-(Ethane-1,2-di-yl)-bis-(2-[3,4-bis (4-methoxyphenyl)isoxazol-5-yl]acetamide)] | – | – | – | – | melting point: 145 to 148 °C
6 | COc1ccc(-c2noc(CC(=O)NCCCCC(=O)OC[C@H]3OC(O)[C@H](O)[C@@H](O)[C@H]3O)c2-c2ccc(OC)cc2)cc1 (mixture of isomers) [GALMOF5, 6-O-(5-{2-[3,4-bis(4-methoxyphenyl)isoxazol-5-yl]acetamido}pentanoyl)-D-galactopyranose] | – | – | – | – | Papp A→B [3]: 32.1 ×10⁻⁶ cm/s; Papp B→A [3]: 74.9 ×10⁻⁶ cm/s; Papp B → A, Phloretin [4]: 47.2 ×10⁻⁶ cm/s; Papp A→B ([5]; with phloretin 100 mM (GLUT-1 inhibitor), in the presence of 100 mM Phloretin, read-out: Papp A → B, Phloretin): 32.1 ×10⁻⁶ cm/s; Papp B→A ([5]; with phloretin 100 mM (GLUT-1 inhibitor), in the presence of 100 mM Phloretin, read-out: Papp B → A, Phloretin): 47.2 ×10⁻⁶ cm/s; inhibition at 50 µM [6]: 24%; IC50 [6]: > 50000 nM
7 | CCCCC/C=C\C/C=C\C/C=C\C/C=C\CCCC(=O)Nc1ccc(NC(=O)Cc2onc(-c3ccc(OC)cc3)c2-c2ccc(OC)cc2)cc1 | 66% | 40% | 49 nM | > 50000 nM | –
8 | COc1ccc(-c2noc(CC(=O)NCc3ccc(CNC(=O)Cc4onc(-c5ccc(OC)cc5)c4-c4ccc(OC)cc4)cc3)c2-c2ccc(OC)cc2)cc1 | – | – | > 50000 nM | > 50000 nM | –
9 | COc1ccc(-c2noc(CC(=O)NCCCCC(=O)OC[C@H]3OC(O)[C@H](O)[C@@H](O)[C@H]3O)c2-c2ccc(OC)cc2)cc1 (stereo partly drawn) [GALMOF5, 6-O-(5-{2-[3,4-bis(4-methoxyphenyl)isoxazol-5-yl]acetamido}pentanoyl)-D-galactopyranose] | – | – | – | – | reduction of the basolateral to apical flux (Papp B→A) in the presence of phloretin [4]: 37%
10 | COc1ccc(-c2noc(CC(=O)Nc3ccc(NC(=O)Cc4onc(-c5ccc(OC)cc5)c4-c4ccc(OC)cc4)cc3)c2-c2ccc(OC)cc2)cc1 [Compound 14] | – | – | – | – | melting point: 178 to 182 °C
11 | COC(=O)CNC(=O)Cc1onc(-c2ccc(OC)cc2)c1-c1ccc(OC)cc1 | 95% | 80% | 70 nM | 4400 nM | –
12 | COc1ccc(-c2noc(CC(=O)NCCCCNC(=O)Cc3onc(-c4ccc(OC)cc4)c3-c3ccc(OC)cc3)c2-c2ccc(OC)cc2)cc1 [Compound 11, N-(4-(2-(3,4-Bis(4-methoxyphenyl)isoxazol-5-yl)acetamido)butyl)-3,4-bis(4-methoxyphenyl)isoxazole-5-carboxyamide] | – | – | – | – | melting point: 163 to 166 °C
13 | COc1ccc(-c2noc(CC(=O)Nc3ccc(-c4ccc(NC(=O)Cc5onc(-c6ccc(OC)cc6)c5-c5ccc(OC)cc5)cc4)cc3)c2-c2ccc(OC)cc2)cc1 [Compound 16, N,N′-(Biphenyl-4,4′-di-yl)bis(2-(3,4-bis(4-methoxyphenyl)isoxazol-5-yl)acetamide)] | – | – | – | – | melting point: 240 to 243 °C
14 | COc1ccc(-c2noc(CC(=O)NCCCCCCCCCCC(=O)OCC3OC(O)C(O)C(O)C3O)c2-c2ccc(OC)cc2)cc1 [GALMOF11, [(2S,3R,4S,6R)-3,4,5,6-tetrahydroxytetrahydro-2H-pyran-2-yl-]mhetyl 11-{2-[3,4-bis(4-methoxyphenyl)isoxazol-5-yl-]acetamido}undecanoate] | – | – | – | – | Papp B→A ([4]; compound alone): 77.2 ×10⁻⁶ cm/s; Papp B → A, Phloretin [4]: 62.2 ×10⁻⁶ cm/s; reduction of the basolateral to apical flux (Papp B→A) in the presence of phloretin [4]: 20%; Papp A→B ([5]; compound alone, read-out: Papp A → B): 29.2 ×10⁻⁶ cm/s; Papp B→A ([5]; compound alone, read-out: Papp B → A): 77.2 ×10⁻⁶ cm/s; Papp A→B ([5]; with phloretin (GLUT-1 inhibitor), in Phloretin, read-out: Papp A → B, Phloretin): 29.2 ×10⁻⁶ cm/s; Papp B→A ([5]; with phloretin (GLUT-1 inhibitor), in Phloretin, read-out: Papp B → A, Phloretin): 62.2 ×10⁻⁶ cm/s; inhibition at 50 µM [6]: 64%; IC50 [6]: 270 nM
15 | CCCCC/C=C\C/C=C\C/C=C\C/C=C\CCCC(=O)NCCCCNC(=O)Cc1onc(-c2ccc(OC)cc2)c1-c1ccc(OC)cc1 | 57% | 61% | 16000 nM | 800 nM | –

More lines, main results first:

Row | inhibition at 50 µM [1] | inhibition at 50 µM [2] | IC50 [1] | IC50 [2] | SMILES | further results
16 | 73% | – | 80 nM | > 50000 nM | COc1ccc(-c2noc(CC(=O)Nc3ccc(-c4ccc(NC(=O)Cc5onc(-c6ccc(OC)cc6)c5-c5ccc(OC)cc5)cc4)cc3)c2-c2ccc(OC)cc2)cc1 [drawing 66] | –
17 | 74% | – | 5500 nM | > 50000 nM | COc1ccc(-c2noc(CC(=O)NCCCCNC(=O)Cc3onc(-c4ccc(OC)cc4)c3-c3ccc(OC)cc3)c2-c2ccc(OC)cc2)cc1 [drawing 64] | –
18 | 85% | – | 150 nM | > 50000 nM | COc1ccc(-c2noc(CC(=O)Nc3ccc(NC(=O)Cc4onc(-c5ccc(OC)cc5)c4-c4ccc(OC)cc4)cc3)c2-c2ccc(OC)cc2)cc1 [drawing 65] | –
19 | 100% | 38% | – | > 50000 nM | COc1ccc(-c2noc(CC(=O)O)c2-c2ccc(OC)cc2)cc1 [drawing 42, reference compound] | –
20 | 100% | 87% | 100 nM | 700 nM | COc1ccc(-c2noc(CC(=O)OCC3OC(O)C(O)C(O)C3O)c2-c2ccc(OC)cc2)cc1 (stereo not drawn) [drawing 44] | –
21 | 75% | 45% | 13 nM | 120 nM | COc1ccc(-c2noc(CC(=O)NCCNC(=O)Cc3onc(-c4ccc(OC)cc4)c3-c3ccc(OC)cc3)c2-c2ccc(OC)cc2)cc1 [drawing 61] | –
